The target in data set [1] is T1, 20S proteasome extracted from rat liver, trypsin-like (TL) activity (Rattus norvegicus, UniProt P40112+Q9JHW0).
T1 construct: 20S proteasome extracted from rat liver; from tissue; host or cells: rat liver
The data set can be described thus: Proteasome inhibition, trypsin-like (TL) activity, fluorescent peptide Z-Ala-Arg-Arg-AMC. Conditions: rat liver 20S proteasome, 37° C., 1 h; read-out: T-L (IC50). Type of data set: biochemical. As to the method:
(§1) The activities of the proteasome were assayed using fluorescent peptides: Suc-leu-leu-Val-Tyr-AMC (Suc represents succinyl, and AMC represents 7-amino-4-methylcoumarin, purchased from SIGMA) for determining chymotryptic-like (CT-L) activity; Z-Ala-Arg-Arg-AMC (Z represents benzyloxycarbonyl, purchased from Calbiochem) for determining trypsin-like (TL) activity; and Z-leu-leu-Glu-βNA (βNA represents β-naphtylamide, purchased from SIGMA) for determining peptidyl-glutamyl-peptide-hydrolyzing (PGPH) enzyme activity.
(§2) Method for the aforesaid activity assays is as follows: 1 μg of 20S proteasome extracted from rat liver was incubated with a 100 μL solution containing various concentrations of compounds, 50 μM fluorescent peptides and 20 mM Tris-HCl at 37° C. for 1 h, respectively. The fluorescence released from AMC and RNA reagents was measured by a spectrofluorimeter Fluostar OPTIMA and BMG Germany at excitation/emission wavelengths of 380/440 nm and 335/410 nm, respectively. 0.1% DMSO was used as a solvent control. Compared with the fluorescence of solvent control, an inhibition rate was calculated. Said assays used anticancer drug bortezomib (leukemia drug), namely PS341 as compound for positive control.

The target in data set [2] is T2, 20S proteasome extracted from rat liver, peptidyl-glutamyl-peptide-hydrolyzing (PGPH) enzyme activity (Rattus norvegicus, UniProt P28073+Q9JHW0).
T2 construct: 20S proteasome extracted from rat liver; from tissue; host or cells: rat liver
The data set can be described thus: Proteasome inhibition, PGPH activity, fluorescent peptide Z-leu-leu-Glu-βNA. The data set is classed as biochemical. To be noted: rat liver 20S proteasome, 37° C., 1 h. The method, then: as §1, §2

Data set [3] concerns the target T3, 20S proteasome extracted from rat liver, chymotryptic-like (CT-L) activity (Rattus norvegicus, UniProt P18421+P28075).
T3 construct: 20S proteasome extracted from rat liver; from tissue; host or cells: rat liver
The data set can be described thus: Proteasome inhibition, chymotryptic-like (CT-L) activity, fluorescent peptide Suc-leu-leu-Val-Tyr-AMC. To be noted: rat liver 20S proteasome, 37° C., 1 h. The data set is classed as biochemical. The method, then:
as §1
Method for the aforesaid activity assays is as follows: 1 μg of 20S proteasome extracted from rat liver was incubated with a 100 μL solution containing various concentrations of compounds, 50 μM fluorescent peptides and 20 mM Tris-HCl at 37° C. for 1 h, respectively. The fluorescence released from AMC and RNA reagents was measured by a spectrofluorimeter Fluostar OPTIMA and BMG Germany at excitation/emission wavelengths of 380/440 nm and 335/410 nm, respectively. 0.1% DMSO was used as a solvent control. Compared with the fluorescence of solvent control, an inhibition rate was calculated.

Data set [4] concerns KB human nasopharyngeal carcinoma cell. The experiment in a line: Preliminary anti-tumor screening in vitro, SRB method. To be noted: for inhibition at 0.05 µM / inhibition at 0.5 µM / inhibition at 5 µM: Homo sapiens, read-out: Inhibition rate %; for Test results: number of doses with inhibition > 50%. Type of data set: cell-based. More on the design: key to Test results: +++: inhibition rates at three doses are greater than 50%; ++: inhibition rates at two doses are greater than 50%; +: inhibition rate at one dose is greater than 50%. As to the method: (§3) The test methods used in this test example is the routine method for anti-tumor activities test in pharmaceutical area, for example, referring to the following reference: (J. Immunol Method, 1983, 65, 55).
(§4) Test models: A: MTT method (HL-60 human leukemia); B: SRB method (BGC-823 human gastric cancer); C: SRB method (Bel-7402 human hepatocarcinoma); D: SRB method (KB human nasopharyngeal carcinoma).
(§5) The aforesaid tests were carried out with the compounds of Examples 1-26 in the present invention, test results are shown in Tables 2-5.
(In general: Sulforhodamine B stains cellular protein and so reports cell mass.)

The subject of data set [5] is Bel-7402 human hepatocarcinoma cell. The data set is described as above. Type of data set: cell-based. More on the design: key to Test results: +++: inhibition rates at three doses are greater than 50%; ++: inhibition rates at two doses are greater than 50%; +: inhibition rate at one dose is greater than 50%. Conditions: Bel-7402, SRB; for Test results: number of doses with inhibition > 50%; for inhibition at 0.05 µM / inhibition at 0.5 µM / inhibition at 5 µM: Homo sapiens, read-out: Inhibition rate %. As to the method:
as §3, §4, §5

The test system of data set [6] is BGC-823 human gastric cancer cell. The data set is described as above. Conditions: BGC-823, SRB; for Test results: number of doses with inhibition > 50%; for inhibition at 0.05 µM / inhibition at 0.5 µM / inhibition at 5 µM: Homo sapiens, read-out: Inhibition rate %. The data set is classed as cell-based. More on the design: key to Test results: +++: inhibition rates at three doses are greater than 50%; ++: inhibition rates at two doses are greater than 50%; +: inhibition rate at one dose is greater than 50%. As to the method: as §3, §4, §5

Data set [7] relates to HL-60 human leukemia cell. The experiment in a line: Preliminary anti-tumor screening in vitro, MTT method. The data set is classed as cell-based. More on the design: key to Test results: +++: inhibition rates at three doses are greater than 50%; ++: inhibition rates at two doses are greater than 50%; +: inhibition rate at one dose is greater than 50%. To be noted: HL-60, MTT; for Test results: number of doses with inhibition > 50%; for inhibition at 0.05 µM / inhibition at 0.5 µM / inhibition at 5 µM: Homo sapiens, read-out: Inhibition rate %. The method, then: as §3, §4, §5
(Formazan colour is commonly taken as a measure of viable cells.)

The test system of another data set is murine H22 cells. The data set can be described thus: In vivo anti-tumor activity, H22 tumor in ICR mice, oral administration. Conditions: 1 mg/kg orally once per day for 10 days. The method, then:
Animal: ICR mice, half male and half female (18-22 g), provided by Laboratory Animal Science Department of Peking Medical University.
Tumor cell strain: murine H22 cells were provided by cell bank of pharmacological group of the State Key Laboratory of Natural and Biomimetic Drugs.
Method: Murine tumor cells were taken to be treated, and diluted to 5×10^6 cells/ml after treatment. The diluted tumor cells solution was inoculated to the left forelimb oxter of the mice with 0.2 ml/mouse under aseptic condition. 24 h after inoculation, the mice were divided into groups and orally administered once per day to the mice in each group for 10 days. At the 12th day, the tumors were peeled off and weighed, and the average weight of the tumor, standard deviation (SD) and p-value of each group were calculated.

The text below walks through data of patent US9421237B2, “Tripeptide boronic acid or boronic ester, preparative method and use thereof” (PEKING UNIVERSITY, priority 2009, dated 2016).

Bounds are passed on as bounds.

With `CC(C)C[C@H](NC(=O)[C@H](Cc1ccccc1)NC(=O)[C@H](Cc1ccccc1)NC(=O)c1cnccn1)B1OC2CC3C[C@@H](C3(C)C)[C@]2(C)O1` (stereo partly drawn) [Compound 5a, Pinanediol N-pyrazineformyl-L-phenylalanyl-L-phenylalanyl-L-leucine Borate], the melting point (as a rule, the temperature, or range, at which the solid turns liquid) fell in the range of 78 to 80 °C. In addition, in [1], the IC50 (as a rule, the point on the concentration scale where inhibition reaches its midpoint) was above 20 nM. The compound also returned an IC50 in data set [2] of 8.33 ± 2.49 nM. Further, the IC50 in data set [3] is 0.402 ± 0.024 nM.
`CC(C)C[C@H](NC(=O)[C@H](Cc1ccccc1)NC(=O)[C@H](CC(C)C)NC(=O)c1cnccn1)B1OC2CC3C[C@@H](C3(C)C)[C@]2(C)O1` (stereo partly drawn) [Compound 5e, Pinanediol N-pyrazineformyl-L-leucyl-L-phenylalanyl-L-leucine Borate] had a melting point of 63 to 65 °C. Moreover, the IC50 in data set [1] is above 20 nM. Moreover, the IC50 in data set [2] is 3.405 ± 0.021 nM. In [3], this compound registered an IC50 of 0.431 ± 0.086 nM.
Compound `CC(C)C[C@H](NC(=O)[C@H](Cc1ccc2ccccc2c1)NC(=O)[C@H](Cc1ccccc1)NC(=O)c1cnccn1)B1OC2CC3C[C@@H](C3(C)C)[C@]2(C)O1` (stereo partly drawn) [Compound 5g, Pinanediol N-pyrazineformyl-L-phenylalanyl-L-naphthylalanyl-L-leucine Borate] registered a melting point of 97 to 98 °C. For the same compound, in data set [4], the inhibition – broadly, the drop in the measured response relative to a control, in per cent – at 0.05 µM turned out to be 62.8%; the inhibition at 0.5 µM was 95.5%; the inhibition at 5 µM is 96.5%; the Test results is listed as “+++”. For the same compound, in data set [5], the Test results is listed as “++”, the inhibition at 0.05 µM turned out to be 46.7%, the inhibition at 0.5 µM was found to be 77.7% and the inhibition at 5 µM is 94.7%. In data set [6], the Test results is recorded as “+++”, the inhibition at 0.05 µM amounted to 77.6%, the inhibition at 0.5 µM stood at 95.4% and the inhibition at 5 µM came out at 95.9%. In addition, in data set [7], the Test results is listed as “++”, the inhibition at 0.05 µM was -5.06%, the inhibition at 0.5 µM turned out to be 87.5% and the inhibition at 5 µM was 88.3%. For the same compound, the IC50 in data set [1] was above 20 nM. Moreover, the IC50 in data set [3] is 0.443 ± 0.081 nM.
For `CC(C)C[C@H](NC(=O)[C@H](Cc1ccc2ccccc2c1)NC(=O)[C@H](Cc1ccc2ccccc2c1)NC(=O)c1cnccn1)B1OC2CC3C[C@@H](C3(C)C)[C@]2(C)O1` (stereo partly drawn) [Compound 5h, Pinanediol N-pyrazineformyl-L-naphthylalanyl-L-naphthylalanyl-L-leucine Borate], the melting point was 136 to 137 °C. In data set [4], the inhibition at 0.05 µM came to 20.8%, the inhibition at 0.5 µM came out at 91.2%, the inhibition at 5 µM came out at 94.6% and the Test results is reported as “++”. Further, in data set [5], the Test results is listed as “++”, the inhibition at 0.05 µM came out at 13.1%, the inhibition at 0.5 µM turned out to be 51.7% and the inhibition at 5 µM came out at 91%. Moreover, in data set [6], the Test results is “+++”, the inhibition at 0.05 µM was found to be 55%, the inhibition at 0.5 µM is 89% and the inhibition at 5 µM stood at 95.4%. For the same compound, in data set [7], the Test results is listed as “++”, the inhibition at 0.05 µM turned out to be 11.4%, the inhibition at 0.5 µM turned out to be 85.5% and the inhibition at 5 µM turned out to be 88.3%. In addition, the IC50 in [1] is above 20 nM. This compound also displayed an IC50 in [3] of 0.495 ± 0.092 nM.
Turning to `CC(C)C[C@H](NC(=O)[C@H](CC1=CNC2C=CC=CC12)NC(=O)[C@H](Cc1ccccc1)NC(=O)c1cnccn1)B1OC2CC3C[C@@H](C3(C)C)[C@]2(C)O1` (stereo partly drawn) [Compound 5j], the IC50 in data set [1], in data set [2] and in [3] was above 20 nM each time.
Take `CC(C)C[C@H](NC(=O)[C@H](CC(C)C)NC(=O)[C@H](Cc1ccc2ccccc2c1)NC(=O)c1cnccn1)B1OC2CC3C[C@@H](C3(C)C)[C@]2(C)O1` (stereo partly drawn) [Compound 5m, Pinanediol N-pyrazineformyl-L-naphthylalanyl-L-leucyl-L-leucine Borate]: the melting point was 99 to 100 °C. In data set [4], the inhibition at 0.05 µM was 8.59%, the inhibition at 0.5 µM worked out at 85.6%, the inhibition at 5 µM was 96.2% and the Test results is recorded as “++”. In data set [5], the Test results is reported as “++”, the inhibition at 0.05 µM stood at 6.49%, the inhibition at 0.5 µM is 52.6% and the inhibition at 5 µM was 95.7%. Moreover, in data set [6], the Test results is “++”, the inhibition at 0.05 µM was determined as 46%, the inhibition at 0.5 µM worked out at 84.5% and the inhibition at 5 µM amounted to 97.2%. Besides, in data set [7], the Test results was “++”, the inhibition at 0.05 µM was 11.2%, the inhibition at 0.5 µM was found to be 82.7% and the inhibition at 5 µM stood at 87.9%. Moreover, the IC50 in data set [1] is above 20 nM. Also, in data set [3], the IC50 was determined as 0.345 ± 0.106 nM.
For `CC(C)C[C@H](NC(=O)[C@H](Cc1ccccc1)NC(=O)[C@H](Cc1c[nH]c2ccccc12)NC(=O)c1cnccn1)B(O)O` [Compound 6i, N-pyrazineformyl-L-tryptophyl-L-phenylalanyl-L-leucine Boronic Acid], the IC50 in data set [1], in data set [2] and in data set [3] was above 20 nM in each case.
As to `CC(C)C[C@H](NC(=O)[C@H](Cc1c[nH]c2ccccc12)NC(=O)[C@H](Cc1ccccc1)NC(=O)c1cnccn1)B(O)O` [Compound 6j, N-pyrazineformyl-L-phenylalanyl-L-tryptophyl-L-leucine Boronic Acid], the IC50 in data set [1], in [2] and in [3] was above 20 nM throughout.
Regarding `CC(C)C[C@H](NC(=O)[C@H](CC(C)C)NC(=O)[C@H](CC(C)C)NC(=O)c1cnccn1)B(O)O` [Compound 6l, N-pyrazineformyl-L-leucyl-L-leucyl-L-leucine Boronic Acid], the concentration for half-maximal inhibition (IC50) in data set [1], in data set [2] and in data set [3] was above 20 nM each time.
With `CC(C)C[C@H](NC(=O)[C@H](Cc1ccccc1)NC(=O)c1cnccn1)B(O)O` [PS341, Bortezomib, reference compound], the half-maximal inhibitory concentration (IC50) in data set [1] was above 20 nM. Besides, the “Body weight (g) (X ± SD)” value in the data set on murine H22 cells (ICR mice with H22) came out at 0.65 ± 2.07 g. In the data set with murine H22 cells (tumors weighed at 12th day), the “Inhibition rate (%)” value was found to be 62.05% and the “Tumor weight (g) (X ± SD)” value worked out at 0.47 ± 0.20 g.
